Assay results taken from patent US20240018161A1, “MODULATORS OF CYSTIC FIBROSIS TRANSMEMBRANE CONDUCTANCE REGULATOR” (VERTEX PHARMACEUTICALS INCORPORATED, priority 2020, published 2024).
Where two headings read alike, the source gives them in different places.

Biological target: CFTR-mediated chloride transport in human intestinal epithelial enteroid cells (Homo sapiens, UniProt P13569)
Assay: Membrane potential dye, Enteroid Assay A
Format: cell-based
Details: for EC50: read-out: Ent. A EC50
Outline: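 Membrane potential dye (20 μM methyl oxonol, with 30 μM CaCCinh-A01 and 30 μM Chicago Sky Blue) loaded 25 min at room temperature into ROCK-inhibitor-seeded human enteroid cells. Chloride-free stimulation buffer triggered transport, followed by 15 min fluorescence. % Activity relative to 3 μM/3 μM/300 nM triple-combination control.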

[1] = enteroid cells incubated with test compound 18-24 hours, acute 10 μM forskolin and 300 nM N-[2,4-bis(1,1-dimethylethyl)-5-hydroxyphenyl]-1,4-dihydro-4-oxoquinoline-3-carboxamide
[2] = percentage of chloride transport of triple combination control (3 μM N-[(6-amino-2-pyridyl)sulfonyl]-6-(3-fluoro-5-isobutoxy-phenyl)-2-[(4S)-2,2,4-trimethylpyrrolidin-1-yl]pyridine-3-carboxamide based)

CFTR-mediated chloride transport in human intestinal epithelial enteroid cells, sequence (P13569 with tags, fused parts or gaps DEL508-508): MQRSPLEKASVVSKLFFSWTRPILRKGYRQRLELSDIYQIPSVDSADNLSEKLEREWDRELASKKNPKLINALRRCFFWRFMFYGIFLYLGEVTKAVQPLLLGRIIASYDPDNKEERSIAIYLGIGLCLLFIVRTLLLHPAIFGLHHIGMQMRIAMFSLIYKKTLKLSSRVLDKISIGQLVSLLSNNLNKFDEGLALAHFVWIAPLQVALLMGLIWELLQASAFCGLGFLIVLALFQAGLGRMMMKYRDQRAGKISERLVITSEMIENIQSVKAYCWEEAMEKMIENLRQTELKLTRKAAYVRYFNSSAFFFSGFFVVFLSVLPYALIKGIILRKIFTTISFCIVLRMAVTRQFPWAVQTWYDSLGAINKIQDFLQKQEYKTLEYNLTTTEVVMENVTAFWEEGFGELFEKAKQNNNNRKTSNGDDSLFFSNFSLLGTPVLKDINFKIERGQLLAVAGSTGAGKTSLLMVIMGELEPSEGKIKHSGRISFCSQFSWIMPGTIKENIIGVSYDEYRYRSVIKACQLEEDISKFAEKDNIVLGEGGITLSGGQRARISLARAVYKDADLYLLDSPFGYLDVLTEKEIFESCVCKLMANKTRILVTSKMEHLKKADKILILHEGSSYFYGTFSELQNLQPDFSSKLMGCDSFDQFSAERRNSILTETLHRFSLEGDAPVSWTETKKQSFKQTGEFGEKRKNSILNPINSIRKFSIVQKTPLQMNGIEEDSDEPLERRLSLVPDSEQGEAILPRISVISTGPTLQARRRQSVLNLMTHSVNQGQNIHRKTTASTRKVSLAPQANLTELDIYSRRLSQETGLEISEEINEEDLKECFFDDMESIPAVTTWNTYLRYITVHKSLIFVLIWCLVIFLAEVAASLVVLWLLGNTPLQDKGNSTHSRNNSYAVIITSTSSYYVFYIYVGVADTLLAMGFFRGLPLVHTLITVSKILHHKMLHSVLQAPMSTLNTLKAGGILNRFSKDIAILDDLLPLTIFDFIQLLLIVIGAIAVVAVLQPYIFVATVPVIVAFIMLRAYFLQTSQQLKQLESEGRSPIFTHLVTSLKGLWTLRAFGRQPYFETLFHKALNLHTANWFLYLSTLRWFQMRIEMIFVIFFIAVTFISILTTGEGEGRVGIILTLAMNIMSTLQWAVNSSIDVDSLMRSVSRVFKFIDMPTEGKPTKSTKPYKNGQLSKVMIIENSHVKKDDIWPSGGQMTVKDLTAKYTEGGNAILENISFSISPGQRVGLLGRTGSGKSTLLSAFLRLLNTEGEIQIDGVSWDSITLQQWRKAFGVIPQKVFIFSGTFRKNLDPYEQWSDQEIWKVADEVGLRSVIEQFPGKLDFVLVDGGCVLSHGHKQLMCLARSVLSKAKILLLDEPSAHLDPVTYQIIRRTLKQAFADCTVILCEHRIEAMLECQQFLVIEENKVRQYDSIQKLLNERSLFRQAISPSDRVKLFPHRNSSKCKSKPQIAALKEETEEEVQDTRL

SMILES | EC50 [1] | Ent. A Max Activity (%) (Enteroid Assay A) | EC50 (Enteroid Assay A) | Ent. A Max Activity (%) [2]
Cc1cccc(C)c1-c1cc2nc(n1)NS(=O)(=O)c1cccc(c1)C(=O)N1CCN(Cc3cccnc3)C[C@H](C1)O2 [Compound 66, (36R)-16-(2,6-dimethylphenyl)-34-(pyridin-3-ylmethyl)-2-oxa-6-thia-7-aza-3(6,1)-diazepana-1(4,2)-pyrimidina-5(1,3)-benzenacycloheptaphan-4-one 6,6-dioxide] | 3 to 30 µM | – | – | ++ (++ is 30-60%)
Cc1cccc(C)c1-c1cc2nc(n1)NS(=O)(=O)c1cccc(c1)C(=O)N1CCN(C(C)C)C[C@H](C1)O2 [Compound 75, (16R)-12-(2,6-Dimethylphenyl)-18-(propan-2-yl)-15-oxa-8λ^6-thia-1,9,11,18,22-pentaazatetracyclo[14.4.1.13,7.110,14]tricosa-3,5,7(23),10,12,14(22)-hexaene-2,8,8-trione] | – | +++ (+++ is >600%) | < 1 µM | –
Cc1cccc(C)c1-c1cc2nc(n1)NS(=O)(=O)c1cccc(c1)C(=O)N1CCN(C(=O)C(C)(C)C)C[C@H](C1)O2 [Compound 80, (16R)-12-(2,6-Dimethylphenyl)-18-(2,2-dimethylpropanoyl)-15-oxa-8λ^6-thia-1,9,11,18,22-pentaazatetracyclo[14.4.1.13,7.110,14]tricosa-3(23),4,6,10,12,14(22)-hexaene-2,8,8-trione] | – | +++ (+++ is >600%) | 3 to 30 µM | –
Cc1cccc(C)c1-c1cc2nc(n1)NS(=O)(=O)c1cccc(c1)C(=O)N1CCN(Cc3ccccc3)CC(C)(C1)O2 (centres unmarked) [Compound 82, 18-Benzyl-12-(2,6-dimethylphenyl)-16-methyl-15-oxa-8λ^6-thia-1,9,11,18,22-pentaazatetracyclo[14.4.1.13,7.110,14]tricosa-3(23),4,6,10,12,14(22)-hexaene-2,8,8-trione] | – | +++ (+++ is >600%) | 1 to 3 µM | –
Cc1cccc(C)c1-c1cc2nc(n1)NS(=O)(=O)c1cccc(c1)C(=O)N1CCN(C3CC4(CCCC4)C3)C[C@@H](O2)[C@H]1CC(C)C [Compound 83, (16R,21R)-12-(2,6-Dimethylphenyl)-21-(2-methylpropyl)-18-{spiro[3.4]octan-2-yl}-15-oxa-8λ^6-thia-1,9,11,18,22-pentaazatetracyclo[14.4.1.13,7.110,14]tricosa-3(23),4,6,10(22),11,13-hexaene-2,8,8-trione] | – | +++ (+++ is >600%) | < 1 µM | –
Cc1cccc(C)c1-c1cc2nc(n1)NS(=O)(=O)c1cccc(c1)C(=O)N1CCNCC(O2)C1CC(C)C (centres unmarked) [Compound 93, 12-(2,6-Dimethylphenyl)-21-(2-methylpropyl)-15-oxa-8λ^6-thia-1,9,11,18,22-pentaazatetracyclo[14.4.1.13,7.110,14]tricosa-3(23),4,6,10(22),11,13-hexaene-2,8,8-trione] | – | +++ (+++ is >600%) | 1 to 3 µM | –
Cc1cccc(C)c1-c1cc2nc(n1)NS(=O)(=O)c1cccc(c1)C(=O)N1C[C@@H](CN(C3CC4(CCCC4)C3)C[C@@H]1CC(C)C)O2 [Compound 97, (16R,20S)-12-(2,6-Dimethylphenyl)-20-(2-methylpropyl)-18-{spiro[3.4]octan-2-yl}-15-oxa-8λ^6-thia-1,9,11,18,22-pentaazatetracyclo[14.4.1.13,7.110,14]tricosa-3(23),4,6,10(22),11,13-hexaene-2,8,8-trione] | – | ++ (++ is 30-60%) | < 1 µM | –
Cc1cccc(C)c1-c1cc2nc(n1)NS(=O)(=O)c1cccc(c1)C(=O)N1C[C@@H](CNC[C@H]1CC(C)C)O2 [Compound 101, (16R,20R)-12-(2,6-Dimethylphenyl)-20-(2-methylpropyl)-15-oxa-8λ^6-thia-1,9,11,18,22-pentaazatetracyclo[14.4.1.13,7.110,14]tricosa-3(23),4,6,10,12,14(22)-hexaene-2,8,8-trione] | – | ++ (++ is 30-60%) | < 1 µM | –

Second part, led by results:

EC50 [1] | Ent. A Max Activity (%) (Enteroid Assay A) | EC50 (Enteroid Assay A) | SMILES | Ent. A Max Activity (%) [2]
< 1 µM | – | – | Cc1cccc(C)c1-c1cc2nc(n1)NS(=O)(=O)c1cccc(c1)C(=O)N1CCN(CCCC(C)(C)C)CC(C1)O2 (centres unmarked) [Compound 65, 18-(4,4-Dimethylpentyl)-12-(2,6-dimethylphenyl)-15-oxa-8λ^6-thia-1,9,11,18,22-pentaazatetracyclo[14.4.1.13,7.110,14]tricosa-3(23),4,6,10(22),11,13-hexaene-2,8,8-trione] | ++ (++ is 30-60%)
< 1 µM | – | – | Cc1cccc(C)c1-c1cc2nc(n1)NS(=O)(=O)c1cccc(c1)C(=O)N1CCN(Cc3ccccc3)C[C@H](C1)O2 [Compound 67, (16R)-18-Benzyl-12-(2,6-dimethylphenyl)-15-oxa-8λ^6-thia-1,9,11,18,22-pentaazatetracyclo[14.4.1.13,7.110,14]tricosa-3(23),4,6,10(22),11,13-hexaene-2,8,8-trione] | +++ (+++ is >60%)
1 to 3 µM | – | – | Cc1cccc(C)c1-c1cc2nc(n1)NS(=O)(=O)c1cccc(c1)C(=O)N1CCN(Cc3ccccc3)C[C@@H](C1)O2 [Compound 68, (16S)-18-benzyl-12-(2,6-dimethylphenyl)-15-oxa-8λ^6-thia-1,9,11,18,22-pentaazatetracyclo[14.4.1.13,7.110,14]tricosa-3(23),4,6,10,12,14(22)-hexaene-2,8,8-trione] | + (+ is <300%)
– | +++ (+++ is >600%) | 1 to 3 µM | CCN1CCN2C[C@@H](C1)Oc1cc(-c3c(C)cccc3C)nc(n1)NS(=O)(=O)c1cccc(c1)C2=O [Compound 74, (16R)-12-(2,6-Dimethylphenyl)-18-ethyl-15-oxa-8λ^6-thia-1,9,11,18,22-pentaazatetracyclo[14.4.1.13,7.110,14]tricosa-3(23),4,6,10,12,14(22)-hexaene-2,8,8-trione] | –
– | + (+ is <30%) | – | Cc1cccc(C)c1-c1cc2nc(n1)NS(=O)(=O)c1cccc(c1)CN1CC(CNCC1=O)O2 (centres unmarked) [Compound 76, 12-(2,6-Dimethylphenyl)-15-oxa-8λ^6-thia-1,9,11,18,22-pentaazatetracyclo[14.4.1.13,7.110,14]tricosa-3(23),4,6,10,12,14(22)-hexaene-8,8,20-trione] | –
– | ++ (++ is 30-60%) | < 1 µM | Cc1cccc(C)c1-c1cc2nc(n1)NS(=O)(=O)c1cccc(c1)CN1CC(CN(C3CCC(F)(F)CC3)CC1=O)O2 (centres unmarked) [Compound 78, 18-(4,4-Difluorocyclohexyl)-12-(2,6-dimethylphenyl)-15-oxa-8λ^6-thia-1,9,11,18,22-pentaazatetracyclo[14.4.1.13,7.110,14]tricosa-3(23),4,6,10,12,14(22)-hexaene-8,8,20-trione] | –
– | +++ (+++ is >600%) | < 1 µM | Cc1cccc(C)c1-c1cc2nc(n1)NS(=O)(=O)c1cccc(c1)C(=O)N1CCN(C(=O)CC34CC5CC(CC(C5)C3)C4)C[C@H](C1)O2 [Compound 79, (16R)-18-[2-(Adamantan-1-yl)acetyl]-12-(2,6-dimethylphenyl)-15-oxa-8λ^6-thia-1,9,11,18,22-pentaazatetracyclo[14.4.1.13,7.110,14]tricosa-3(23),4,6,10,12,14(22)-hexaene-2,8,8-trione] | –
– | +++ (+++ is >600%) | 1 to 3 µM | Cc1cccc(C)c1-c1cc2nc(n1)NS(=O)(=O)c1cccc(c1)C(=O)N1CCN(C(=O)CC(C)(C)C)C[C@H](C1)O2 [Compound 81, (16R)-18-(3,3-Dimethylbutanoyl)-12-(2,6-dimethylphenyl)-15-oxa-8λ^6-thia-1,9,11,18,22-pentaazatetracyclo[14.4.1.13,7.110,14]tricosa-3(23),4,6,10,12,14(22)-hexaene-2,8,8-trione] | –
– | ++ (++ is 30-60%) | < 1 µM | Cc1cccc(C)c1-c1cc2nc(n1)NS(=O)(=O)c1cccc(c1)C(=O)N1C[C@@H](CNC[C@@H]1CC(C)C)O2 [Compound 95, (16R,20S)-12-(2,6-Dimethylphenyl)-20-(2-methylpropyl)-15-oxa-8λ^6-thia-1,9,11,18,22-pentaazatetracyclo[14.4.1.13,7.110,14]tricosa-3(23),4,6,10(22),11,13-hexaene-2,8,8-trione] | –
– | + (+ is <30%) | – | Cc1cccc(C)c1-c1cc2nc(n1)NS(=O)(=O)c1cccc(c1)C(=O)N1C[C@@H](CN(CC(F)(F)F)C[C@@H]1CC(C)C)O2 [Compound 98, (16R,20S)-12-(2,6-Dimethylphenyl)-20-(2-methylpropyl)-18-(2,2,2-trifluoroethyl)-15-oxa-8λ^6-thia-1,9,11,18,22-pentaazatetracyclo[14.4.1.13,7.110,14]tricosa-3(23),4,6,10(22),11,13-hexaene-2,8,8-trione] | –
– | ++ (++ is 30-60%) | < 1 µM | Cc1cccc(C)c1-c1cc2nc(n1)NS(=O)(=O)c1cccc(c1)C(=O)N1C[C@@H](CN(C)C[C@@H]1CC(C)C)O2 [Compound 99, (16R,20S)-12-(2,6-Dimethylphenyl)-18-methyl-20-(2-methylpropyl)-15-oxa-8λ^6-thia-1,9,11,18,22-pentaazatetracyclo[14.4.1.13,7.110,14]tricosa-3(23),4,6,10(22),11,13-hexaene-2,8,8-trione] | –
– | +++ (+++ is >600%) | < 1 µM | Cc1cccc(C)c1-c1cc2nc(n1)NS(=O)(=O)c1cccc(c1)C(=O)N1C[C@@H](CN(C)C[C@H]1CC(C)C)O2 [Compound 103, (16R,20R)-12-(2,6-Dimethylphenyl)-18-methyl-20-(2-methylpropyl)-15-oxa-8λ^6-thia-1,9,11,18,22-pentaazatetracyclo[14.4.1.13,7.110,14]tricosa-3(23),4,6,10(22),11,13-hexaene-2,8,8-trione] | –
